Literature values in patent US6323203A, “Composition and method for treating diabetes” (Beyer; Camille F., priority 2000, dated 2001).

Experiments:
[1] = system: nicotinic acid vasomotor and antilipolytic effect; conditions: cited from earlier work; for effect on vasomotor and antilipolytic effect of nicotinic acid: prior administration of the prostaglandin synthesis inhibitor
[2] = in vivo; cited from earlier work
[3] = oral glucose tolerance test; cited from earlier work

CC(=O)Oc1ccccc1C(=O)O [aspirin]
effect on vasomotor and antilipolytic effect of nicotinic acid [1]: abolish the vasomotor, but not the antilipolytic effect of nicotinic acid

NS(=O)(=O)c1cc2c(cc1Cl)NCNS2(=O)=O [hydrochlorothiazide]
effect on potassium [2]: kaliuresis | effect on serum glucose and insulin [3]: increased serum glucose and insulin concentrations

COc1ccc2c(c1)c(CC(=O)O)c(C)n2C(=O)c1ccc(Cl)cc1 [indomethacin]
effect on vasomotor and antilipolytic effect of nicotinic acid [1]: abolish the vasomotor, but not the antilipolytic effect of nicotinic acid

O=C(O)c1cccnc1 [nicotinic acid]
use in diabetics ([1]; Molnar 1964): contraindicated for diabetics | effect on triglyceride hydrolysis to FFA and glycerol ([1]; in vivo): inhibits triglyceride hydrolysis to FFA and glycerol | cutaneous vasomotor reaction of nicotinic acid, consequence in patient care ([1]; nicotinic acid prescribed in patient care): sufficiently undesirable as to be the principal cause for lack of compliance | effect on blush area ([1]; nicotinic acid): transiently stimulate | effect on plasma concentrations of nonesterified fatty acids ([1]; nicotinic acid): reduce | onset of cutaneous reaction relative to peak serum concentration ([1]; nicotinic acid): the onset preceded peak serum PZA concentrations, as is the case also for the cutaneous reactions associated with nicotinic acid
